Legend:
Test in all cases: cells
Settings in all cases: Homo sapiens
[1] = system: KLE; format: functional, cell-based;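 note: growth inhibition of human KLE cells, read out with a cell viability assay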
Description: SANGER: Inhibition of human KLE cell growth in a cell viability assay.

[2] = system: LXF-289 cell line; format: functional, cell-based
Description: SANGER: Inhibition of human LXF-289 cell growth in a cell viability assay.

[3] = system: COLO-684; format: functional, cell-based
Description: SANGER: Inhibition of human COLO-684 cell growth in a cell viability assay.

[4] = system: SH-4; format: functional, cell-based;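 note: growth inhibition of SH-4 cells, read out with a cell viability assay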
Description: SANGER: Inhibition of human SH-4 cell growth in a cell viability assay.

[5] = system: TE-1; format: functional, cell-based;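 note: growth inhibition of the human TE-1 cell line, read out with a cell viability assay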
Description: SANGER: Inhibition of human TE-1 cell growth in a cell viability assay.

[6] = system: HAL-01; format: functional, cell-based;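 note: growth inhibition of human HAL-01 cells, read out with a cell viability assay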
Description: SANGER: Inhibition of human HAL-01 cell growth in a cell viability assay.

[7] = system: P30-OHK; format: functional, cell-based;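 note: growth inhibition of the P30-OHK cell line, read out with a cell viability assay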
Description: SANGER: Inhibition of human P30-OHK cell growth in a cell viability assay.

[8] = system: HCE-4; format: functional, cell-based;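 note: cell viability assay measuring inhibition of growth in the human HCE-4 cell line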
Description: SANGER: Inhibition of human HCE-4 cell growth in a cell viability assay.

[9] = system: SK-MEL-2; format: functional, cell-based;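 note: growth inhibition of human SK-MEL-2 cells measured with a cell viability assay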
Description: SANGER: Inhibition of human SK-MEL-2 cell growth in a cell viability assay.

[10] = system: COLO-829; format: functional, cell-based
Description: SANGER: Inhibition of human COLO-829 cell growth in a cell viability assay.

[11] = system: RCC10RGB; format: functional, cell-based;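 note: growth inhibition of human RCC10RGB cells, read out by a cell viability assay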
Description: SANGER: Inhibition of human RCC10RGB cell growth in a cell viability assay.

[12] = system: DJM-1; format: functional, cell-based;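 note: growth inhibition of human DJM-1 cells, read out by a cell viability assay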
Description: SANGER: Inhibition of human DJM-1 cell growth in a cell viability assay.

[13] = system: MS-1; format: functional, cell-based;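 note: growth inhibition of MS-1 cells, read out by cell viability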
Description: SANGER: Inhibition of human MS-1 cell growth in a cell viability assay.

[14] = system: NCI-H526; format: functional, cell-based;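 note: growth inhibition of the human NCI-H526 cell line, measured by a cell viability assay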
Description: SANGER: Inhibition of human NCI-H526 cell growth in a cell viability assay.

[15] = system: NOS-1; format: functional, cell-based;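 note: growth inhibition of the human NOS-1 cell line, read out with a cell viability assay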
Description: SANGER: Inhibition of human NOS-1 cell growth in a cell viability assay.

[16] = system: RPMI-8226; format: functional, cell-based
Description: SANGER: Inhibition of human RPMI-8226 cell growth in a cell viability assay.

[17] = system: TE-5; format: functional, cell-based;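 note: inhibition of cell growth, read out by a cell viability assay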
Description: SANGER: Inhibition of human TE-5 cell growth in a cell viability assay.

[18] = system: IST-SL1; format: functional, cell-based;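 note: growth inhibition of human IST-SL1 cells, read out with a cell viability assay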
Description: SANGER: Inhibition of human IST-SL1 cell growth in a cell viability assay.

[19] = system: NKM-1; format: functional, cell-based;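 note: growth inhibition of NKM-1 cells, read out with a cell viability assay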
Description: SANGER: Inhibition of human NKM-1 cell growth in a cell viability assay.

[20] = system: NB69; format: functional, cell-based;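 note: growth inhibition of NB69 cells, determined by a cell viability assay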
Description: SANGER: Inhibition of human NB69 cell growth in a cell viability assay.

[21] = system: ES7; format: functional, cell-based;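 note: growth inhibition of cultured human ES7 cells, read out as cell viability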
Description: SANGER: Inhibition of human ES7 cell growth in a cell viability assay.

[22] = system: PSN1; format: functional, cell-based;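 note: suppression of growth of human PSN1 cells, read out by a cell viability assay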
Description: SANGER: Inhibition of human PSN1 cell growth in a cell viability assay.

[23] = system: SK-NEP-1; format: functional, cell-based;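 note: growth inhibition of human SK-NEP-1 cells, read out by a cell viability assay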
Description: SANGER: Inhibition of human SK-NEP-1 cell growth in a cell viability assay.

[24] = system: NH-12; format: functional, cell-based;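 note: growth inhibition of NH-12 cells, read out with a cell viability assay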
Description: SANGER: Inhibition of human NH-12 cell growth in a cell viability assay.

[25] = system: SCC-15; format: functional, cell-based;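 note: growth inhibition of SCC-15 cells, read out with a cell viability assay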
Description: SANGER: Inhibition of human SCC-15 cell growth in a cell viability assay.

[26] = system: LB831-BLC; format: functional, cell-based;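 note: growth inhibition of LB831-BLC cells, read out with a cell viability assay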
Description: SANGER: Inhibition of human LB831-BLC cell growth in a cell viability assay.

[27] = system: LS-411N; format: functional, cell-based
[28] = system: SW982; format: functional, cell-based;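 note: growth inhibition of SW982 cells, read out with a cell viability assay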
Description: SANGER: Inhibition of human SW982 cell growth in a cell viability assay.

[29] = system: K562; format: functional, cell-based
Description: SANGER: Inhibition of human K-562 cell growth in a cell viability assay.

[30] = system: MOLT-16; format: functional, cell-based;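 note: growth inhibition of human MOLT-16 cells, read out with a cell viability assay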
Description: SANGER: Inhibition of human MOLT-16 cell growth in a cell viability assay.

[31] = system: MHH-NB-11; format: functional, cell-based;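 note: growth inhibition of human MHH-NB-11 cells, read out by a cell viability assay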
Description: SANGER: Inhibition of human MHH-NB-11 cell growth in a cell viability assay.

[32] = system: Ramos-2G6-4C10; format: functional, cell-based;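 note: growth inhibition of the cell line, measured by a cell viability read-out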
Description: SANGER: Inhibition of human Ramos-2G6-4C10 cell growth in a cell viability assay.

[33] = system: 8-MG-BA; format: functional, cell-based;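 note: growth inhibition of 8-MG-BA cells, read out with a cell viability assay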
Description: SANGER: Inhibition of human 8-MG-BA cell growth in a cell viability assay.

[34] = system: ACN; format: functional, cell-based;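 note: growth inhibition of the human ACN cell line, read out via cell viability testing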
Description: SANGER: Inhibition of human ACN cell growth in a cell viability assay.

[35] = system: EKVX; format: functional, cell-based;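 note: growth inhibition of human EKVX cells, read out with a cell viability assay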
Description: SANGER: Inhibition of human EKVX cell growth in a cell viability assay.

[36] = system: NCI-H23; format: functional, cell-based;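 note: cell viability assay measuring growth inhibition of NCI-H23 cells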
Description: SANGER: Inhibition of human NCI-H23 cell growth in a cell viability assay.

[37] = system: NCI-H1155; format: functional, cell-based;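 note: cell growth inhibition measured by a viability assay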
Description: SANGER: Inhibition of human NCI-H1155 cell growth in a cell viability assay.

[38] = system: LB771-HNC; format: functional, cell-based;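 note: growth inhibition of LB771-HNC human cells, read out with a cell viability assay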
Description: SANGER: Inhibition of human LB771-HNC cell growth in a cell viability assay.

[39] = system: KP-N-YS; format: functional, cell-based;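 note: cell viability assay measuring inhibition of cell line growth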
Description: SANGER: Inhibition of human KP-N-YS cell growth in a cell viability assay.

[40] = system: MZ2-MEL; format: functional, cell-based;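 note: growth inhibition of MZ2-MEL cells read out with a cell viability assay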
Description: SANGER: Inhibition of human MZ2-MEL cell growth in a cell viability assay.

[41] = system: GOTO; format: functional, cell-based;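 note: growth inhibition of GOTO cells, read out by a cell viability assay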
Description: SANGER: Inhibition of human GOTO cell growth in a cell viability assay.

[42] = system: KG-1; format: functional, cell-based;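 note: growth inhibition of KG-1 cells, read out by a cell viability assay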
Description: SANGER: Inhibition of human KG-1 cell growth in a cell viability assay.

[43] = system: BE-13; format: functional, cell-based;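 note: growth inhibition of human BE-13 cells, measured with a cell viability assay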
Description: SANGER: Inhibition of human BE-13 cell growth in a cell viability assay.

[44] = system: MMAC-SF; format: functional, cell-based;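 note: growth inhibition of human MMAC-SF cells, read out with a cell viability assay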
Description: SANGER: Inhibition of human MMAC-SF cell growth in a cell viability assay.

[45] = system: KM-H2; format: functional, cell-based;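 note: growth inhibition of KM-H2 cells, read out by a cell viability assay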
Description: SANGER: Inhibition of human KM-H2 cell growth in a cell viability assay.

[46] = system: BB65-RCC; format: functional, cell-based;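 note: growth inhibition of the cell line, measured with a cell viability assay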
Description: SANGER: Inhibition of human BB65-RCC cell growth in a cell viability assay.

[47] = system: SW684; format: functional, cell-based;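 note: growth inhibition of human SW684 cells, measured by a cell viability assay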
Description: SANGER: Inhibition of human SW684 cell growth in a cell viability assay.

[48] = system: NCI-H2126; format: functional, cell-based;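 note: growth inhibition of the cancer cell line, determined with a cell viability readout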
Description: SANGER: Inhibition of human NCI-H2126 cell growth in a cell viability assay.

[49] = system: NCI-H1838; format: functional, cell-based;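 note: growth inhibition of NCI-H1838 cells, determined with a cell viability readout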
Description: SANGER: Inhibition of human NCI-H1838 cell growth in a cell viability assay.

[50] = system: IST-MEL1; format: functional, cell-based;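 note: growth inhibition of the cell line, read out with a cell viability assay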
Description: SANGER: Inhibition of human IST-MEL1 cell growth in a cell viability assay.

[51] = system: NCI-H1092; format: functional, cell-based;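 note: cell growth inhibition measured with a cell viability assay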
Description: SANGER: Inhibition of human NCI-H1092 cell growth in a cell viability assay.

[52] = system: KS-1; format: functional, cell-based;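 note: growth inhibition of KS-1 cells, read out with a cell viability assay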
Description: SANGER: Inhibition of human KS-1 cell growth in a cell viability assay.

[53] = system: HT; format: functional, cell-based
Description: SANGER: Inhibition of human HT cell growth in a cell viability assay.

[54] = system: SCH; format: functional, cell-based;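 note: growth inhibition of human SCH cells, read out in a cell viability assay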
Description: SANGER: Inhibition of human SCH cell growth in a cell viability assay.

[55] = system: JVM-3; format: functional, cell-based;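 note: growth inhibition of human JVM-3 cells, read out with a cell viability assay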
Description: SANGER: Inhibition of human JVM-3 cell growth in a cell viability assay.

[56] = system: SW872; format: functional, cell-based;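 note: growth inhibition of SW872 cells, read out by a viability assay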
Description: SANGER: Inhibition of human SW872 cell growth in a cell viability assay.

[57] = system: D-263MG; format: functional, cell-based
Description: SANGER: Inhibition of human D-263MG cell growth in a cell viability assay.

[58] = system: U-87 MG; format: functional, cell-based, U-87MG ATCC;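 note: growth inhibition of the cells measured with a viability assay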
Description: SANGER: Inhibition of human U-87-MG cell growth in a cell viability assay.

[59] = system: 697; format: functional, cell-based
Description: SANGER: Inhibition of human 697 cell growth in a cell viability assay.

[60] = system: GCIY; format: functional, cell-based
Description: SANGER: Inhibition of human GCIY cell growth in a cell viability assay.

[61] = system: NB6; format: functional, cell-based
Description: SANGER: Inhibition of human NB6 cell growth in a cell viability assay.

[62] = system: EW-18; format: functional, cell-based
Description: SANGER: Inhibition of human EW-18 cell growth in a cell viability assay.

[63] = system: KU812 cell line; format: functional, cell-based
Description: SANGER: Inhibition of human KU812 cell growth in a cell viability assay.

[64] = system: BV-173; format: functional, cell-based
Description: SANGER: Inhibition of human BV-173 cell growth in a cell viability assay.

[65] = system: NCI-H209; format: functional, cell-based
Description: SANGER: Inhibition of human NCI-H209 cell growth in a cell viability assay.

## O=c1cc(N2CCOCC2)oc2c(-c3cccc4c3sc3ccccc34)cccc12
[1]
  IC50: > 2 µM
[2]
  IC50: > 2 µM
[3]
  IC50: > 2 µM
[4]
  IC50: > 2 µM
[5]
  IC50: > 2 µM
[6]
  IC50: > 2 µM
[7]
  IC50: > 2 µM
[8]
  IC50: > 2 µM
[9]
  IC50: > 2 µM
[10]
  IC50: > 2 µM
[11]
  IC50: > 2 µM
[12]
  IC50: > 2 µM
[13]
  IC50: > 2 µM
[14]
  IC50: 0.284 µM
[15]
  IC50: > 2 µM
[16]
  IC50: > 2 µM
[17]
  IC50: > 2 µM
[18]
  IC50: > 2 µM
[19]
  IC50: > 2 µM
[20]
  IC50: > 2 µM
[21]
  IC50: > 2 µM
[22]
  IC50: > 2 µM
[23]
  IC50: > 2 µM
[24]
  IC50: > 2 µM
[25]
  IC50: > 2 µM
[26]
  IC50: > 2 µM
[27]
  IC50: > 2 µM
[28]
  IC50: > 2 µM
[29]
  IC50: > 2 µM
[30]
  IC50: > 2 µM
[31]
  IC50: > 2 µM
[32]
  IC50: > 2 µM
[33]
  IC50: > 2 µM
[34]
  IC50: > 2 µM
[35]
  IC50: > 2 µM
[36]
  IC50: > 2 µM
[37]
  IC50: > 2 µM
[38]
  IC50: > 2 µM
[39]
  IC50: 1.14 µM
[40]
  IC50: > 2 µM
[41]
  IC50: > 2 µM
[42]
  IC50: > 2 µM
[43]
  IC50: > 2 µM
[44]
  IC50: > 2 µM
[45]
  IC50: > 2 µM
[46]
  IC50: > 2 µM
[47]
  IC50: > 2 µM
[48]
  IC50: > 2 µM
[49]
  IC50: > 2 µM
[50]
  IC50: > 2 µM
[51]
  IC50: > 2 µM
[52]
  IC50: > 2 µM
[53]
  IC50: > 2 µM
[54]
  IC50: > 2 µM
[55]
  IC50: > 2 µM
[56]
  IC50: > 2 µM
[57]
  IC50: > 2 µM
[58]
  IC50: > 2 µM
[59]
  IC50: > 2 µM
[60]
  IC50: > 2 µM
[61]
  IC50: > 2 µM

## CCCS(=O)(=O)Nc1ccc(F)c(C(=O)c2c[nH]c3ncc(Cl)cc23)c1F [PLX-4720]
[1]
  IC50: > 10 µM
[2]
  IC50: > 10 µM
[3]
  IC50: > 10 µM
[4]
  IC50: 0.414 µM
[62]
  IC50: > 10 µM
[5]
  IC50: > 10 µM
[6]
  IC50: > 10 µM
[7]
  IC50: > 10 µM
[8]
  IC50: > 10 µM
[9]
  IC50: > 10 µM
[10]
  IC50: 0.39 µM
[11]
  IC50: > 10 µM
[12]
  IC50: > 10 µM
[13]
  IC50: > 10 µM
[14]
  IC50: > 10 µM
[15]
  IC50: > 10 µM
[16]
  IC50: > 10 µM
[17]
  IC50: > 10 µM
[18]
  IC50: > 10 µM
[19]
  IC50: > 10 µM
[63]
  IC50: > 10 µM
[20]
  IC50: > 10 µM
[21]
  IC50: > 10 µM
[22]
  IC50: > 10 µM
[23]
  IC50: > 10 µM
[24]
  IC50: > 10 µM
[25]
  IC50: > 10 µM
[26]
  IC50: > 10 µM
[27]
  IC50: > 10 µM
[28]
  IC50: 8.42 µM
[29]
  IC50: > 10 µM
[30]
  IC50: > 10 µM
[31]
  IC50: > 10 µM
[32]
  IC50: > 10 µM
[33]
  IC50: 6.18 µM
[34]
  IC50: 0.385 µM
[35]
  IC50: > 10 µM
[36]
  IC50: > 10 µM
[37]
  IC50: > 10 µM
[38]
  IC50: > 10 µM
[39]
  IC50: > 10 µM
[40]
  IC50: > 10 µM
[41]
  IC50: > 10 µM
[42]
  IC50: 4.74 µM
[43]
  IC50: > 10 µM
[44]
  IC50: 0.686 µM
[45]
  IC50: > 10 µM
[46]
  IC50: > 10 µM
[47]
  IC50: > 10 µM
[48]
  IC50: > 10 µM
[49]
  IC50: > 10 µM
[64]
  IC50: 0.796 µM
[50]
  IC50: > 10 µM
[51]
  IC50: > 10 µM
[52]
  IC50: > 10 µM
[53]
  IC50: > 10 µM
[54]
  IC50: > 10 µM
[55]
  IC50: 9.57 µM
[65]
  IC50: 1.61 µM
[56]
  IC50: > 10 µM
[57]
  IC50: > 10 µM
[58]
  IC50: > 10 µM
[59]
  IC50: 3.55 µM
[60]
  IC50: > 10 µM
[61]
  IC50: > 10 µM
